Measurements as given in EP4782453A1 (Beyang Therapeutics Co., Ltd., priority 2023, dated 2025).

Target: T1, Menin-MLL (Homo sapiens, UniProt O00255)
T1 construct: His-Menin (M1-L615 end); purchased BIORTUS BP9210
T1 sequence (O00255 1-615 isoform O00255-1): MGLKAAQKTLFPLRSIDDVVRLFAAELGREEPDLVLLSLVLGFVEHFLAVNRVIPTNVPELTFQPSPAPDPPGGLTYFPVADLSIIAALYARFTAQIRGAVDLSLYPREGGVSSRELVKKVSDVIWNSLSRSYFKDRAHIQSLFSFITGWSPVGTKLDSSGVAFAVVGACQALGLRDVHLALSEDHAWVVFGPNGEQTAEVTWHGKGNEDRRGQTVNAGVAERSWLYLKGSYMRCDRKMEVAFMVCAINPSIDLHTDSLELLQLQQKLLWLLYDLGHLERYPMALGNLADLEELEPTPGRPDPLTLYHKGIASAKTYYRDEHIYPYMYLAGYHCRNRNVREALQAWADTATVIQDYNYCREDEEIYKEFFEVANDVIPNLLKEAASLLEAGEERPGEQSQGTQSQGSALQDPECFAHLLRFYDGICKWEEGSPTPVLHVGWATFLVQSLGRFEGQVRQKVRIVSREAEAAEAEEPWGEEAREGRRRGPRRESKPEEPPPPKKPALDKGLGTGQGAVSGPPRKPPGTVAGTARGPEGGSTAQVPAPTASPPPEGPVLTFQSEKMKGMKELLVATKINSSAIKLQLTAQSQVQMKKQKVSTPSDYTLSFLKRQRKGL
Assay: Inhibitory activity against Menin-MLL binding (fluorescence polarization)
Settings: fluorescence polarization; 150 nM His-Menin, 15 nM FITC-MLL; 25°C for 60 min; read-out: Menin-MLL IC50
In short: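 His-Menin (M1-L615, 150 nM) preincubated with compound 15 min at 25 °C in HEPES pH 7.5, 50 mM NaCl, 1 mM DTT, 0.01% BSA, then 15 nM FITC-MLL4-43 peptide added for 60 min at 25 °C. Fluorescence polarization read; IC50 from 4-parameter logistic fit, duplicates.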

| IC50 | Structure (SMILES) |
| --- | --- |
| 83 nM | CCN(C(=O)c1cc(F)ccc1-c1cc(C2CN([C@H](CCCN3CCN(C)CC3)C(C)C)C2)cn2c(C)nnc12)C(C)C [Example 360-1, N-ethyl-5-fluoro-2-(3-methyl-6-{1-[(3R)-2-methyl-6-(4-methylpiperazin-1-yl)hexan-3-yl]azacyclobutan-3-yl}-[1,2,4]triazolo[4,3-a]pyridin-8-yl)-N-(isopropyl)benzamide] |
| 2690 nM | CCN(C(=O)c1cc(F)ccc1-c1cc(C2CN([C@@H](CCCN3CCN(C)CC3)C(C)C)C2)cn2c(C)nnc12)C(C)C [Example 360-2, N-ethyl-5-fluoro-2-(3-methyl-6-{1-[(3S)-2-methyl-6-(4-methylpiperazin-1-yl)hexan-3-yl]azacyclobutan-3-yl}-[1,2,4]triazolo[4,3-a]pyridin-8-yl)-N-(isopropyl)benzamide] |
| 1150 nM | Cc1nc(F)c2c(-c3ccc(F)cc3C(=O)N3CCOC[C@H]3C)cc(C3CN([C@@H](CN4CCN(C(=O)OC(C)(C)C)CC4)C(C)C)C3)cn12 [Example 366-1, 4-[(2R)-2-[3-(1-fluoro-8-{4-fluoro-2-[(3R)-3-methylmorpholin-4-carbonyl]phenyl}-3-methylimidazo[1,5-a]pyridin-6-yl)azacyclobutan-1-yl]-3-methylbutyl]piperazin-1-tert-butyl carboxylate] |
| 38.5 nM | Cc1nc(F)c2c(-c3ccc(F)cc3C(=O)N3CCOC[C@H]3C)cc(C3CN([C@H](CN4CCN(C(=O)OC(C)(C)C)CC4)C(C)C)C3)cn12 [Example 366-2, 4-[(2S)-2-[3-(1-fluoro-8-{4-fluoro-2-[(3R)-3-methylmorpholin-4-carbonyl]phenyl}-3-methylimidazo[1,5-a]pyridin-6-yl)azacyclobutan-1-yl]-3-methylbutyl]piperazin-1-tert-butyl carboxylate] |
| 3.9 nM | Cc1nc(F)c2c(-c3ccc(F)cc3C(=O)N3CCOC[C@H]3C)cc(C3CN([C@@H](CN4CCNCC4)C(C)C)C3)cn12 [Example 367-1, (3R)-4-[5-fluoro-2-(1-fluoro-3-methyl-6-{1-[(2R)-3-methyl-1-(piperazin-1-yl)butan-2-yl]azacyclobutan-3-yl}imidazo[1,5-a]pyridin-8-yl)benzoyl]-3-methylmorpholine] |
| 4 nM | Cc1nc(F)c2c(-c3ccc(F)cc3C(=O)N3CCOC[C@H]3C)cc(C3CN([C@H](CN4CCNCC4)C(C)C)C3)cn12 [Example 367-2, (3R)-4-[5-fluoro-2-(1-fluoro-3-methyl-6-{1-[(2S)-3-methyl-1-(piperazin-1-yl)butan-2-yl]azacyclobutan-3-yl}imidazo[1,5-a]pyridin-8-yl)benzoyl]-3-methylmorpholine] |

Continued, compound first:

| Structure (SMILES) | IC50 |
| --- | --- |
| Cc1nc(F)c2c(-c3ccc(F)cc3C(=O)N3CCOC[C@H]3C)cc(C3CN([C@H](CO[C@H]4CCN(C)C4)C(C)C)C3)cn12 [Example 322, (3R)-4-[5-fluoro-2-(1-fluoro-3-methyl-6-{1-[(2S)-3-methyl-1-{[(3S)-1-methylpyrrolidin-3-yl]oxy}butan-2-yl]azacyclobutan-3-yl}imidazo[1,5-a]pyridin-8yl)benzoyl]-3-methylmorpholine] | 2 nM |
| Cc1ncc2c(-c3ccc(F)cc3C(=O)N3CCOC[C@H]3C)cc(C3CN([C@@H](CCCN4CCN(C)CC4)C(C)C)C3)cn12 [Example 323-1, (3R)-4-[5-fluoro-2-(3-methyl-6-{1-[(3S)-2-methyl-6-(4-methylpiperazin-1-yl)hexan-3-yl]azacyclobutan-3-yl}imidazo[1,5-a]pyridin-8-yl)benzoyl]-3-methylmorpholine] | 179 nM |
| CCN1CCN(CCC[C@@H](C(C)C)N2CC(c3cc(-c4ccc(F)cc4C(=O)N4CCOC[C@H]4C)c4cnc(C)n4c3)C2)CC1 [Example 324-1] | 126 nM |
| CCN(C(=O)c1cc(F)ccc1-c1cc(C2CN([C@H](CCCN3CCC[C@H](O)C3)C(C)C)C2)cn2c(C)ncc12)C(C)C [Example 327] | 1.8 nM |
| CC(=O)N1CCN(CCC[C@H](C(C)C)N2CC(c3cc(-c4ccc(F)cc4C(=O)N4CCOC[C@H]4C)c4c(F)nc(C)n4c3)C2)[C@H](C)C1 [Example 328] | 16 nM |
| CC(=O)N1CCN(CCC[C@H](C(C)C)N2CC(c3cc(-c4ccc(F)cc4C(=O)N4CCOC[C@H]4C)c4c(F)nc(C)n4c3)C2)C[C@H]1C [Example 330, 1-{(2R)-4-[(4R)-4-[3-(1-fluoro-8-{4-fluoro-2-[(3R)-3-methylmorpholin-4-carbonyl]phenyl}-3-methylimidazo[1,5-a]pyridin-6-yl)azacyclobutan-1-yl]-5-methylhexyl]-2-methylpiperazin-1-yl}ethan-1-one] | 16 nM |
| CC(=O)N1C[C@H]2C[C@@H]1CN2CCC[C@H](C(C)C)N1CC(c2cc(-c3ccc(F)cc3C(=O)N3CCOC[C@H]3C)c3c(F)nc(C)n3c2)C1 [Example 332, 1-[(1R,4R)-5-[(4R)-4-[3-(1-fluoro-8-{4-fluoro-2-[(3R)-3-methylmorpholin-4-carbonyl]phenyl}-3-methylimidazo[1,5-a]pyridin-6-yl)azacyclobutan-1-yl]-5-methylhexyl]-2,5-diazabicyclo[2.2.1]heptan-2-yl]ethan-1-one] | 9.3 nM |
| CC(=O)N1CCN(CCC[C@H](C(C)C)N2CC(c3cc(-c4ccc(F)cc4C(=O)N4CCOC[C@H]4C)c4c(F)nc(C)n4c3)C2)C2(CC2)C1 [Example 334] | 30 nM |
| CCC(=O)N1CCN(CCC[C@H](C(C)C)N2CC(c3cc(-c4ccc(F)cc4C(=O)N4CCOC[C@H]4C)c4c(F)nc(C)n4c3)C2)CC1 [Example 335] | 8 nM |
| CC(=O)N1CCN(CCC[C@H](C(C)C)N2CC(c3cc(-c4ccc(F)cc4C(=O)N4CCOC[C@H]4C)c4c(F)nc(C)n4c3)C2)CC1(C)C [Example 339] | 13 nM |
| CC(=O)N1CCN(CCC[C@H](C(C)C)N2CC(c3cc(-c4ccc(F)cc4C(=O)N4CCOC[C@H]4C)c4c(F)nc(C)n4c3)C2)CC12CC2 [Example 340] | 33 nM |
| CC(=O)N1C2CC1CN(CCC[C@H](C(C)C)N1CC(c3cc(-c4ccc(F)cc4C(=O)N4CCOC[C@H]4C)c4c(F)nc(C)n4c3)C1)C2 [Example 345] | 18 nM |
| CC(=O)N1CC2CCC(C1)N2CCC[C@H](C(C)C)N1CC(c2cc(-c3ccc(F)cc3C(=O)N3CCOC[C@H]3C)c3cnc(C)n3c2)C1 [Example 348, 1-{8-[(4R)-4-[3-(8-{4-fluoro-2-[(3R)-3-methylmorpholin-4-carbonyl]phenyl}-3-methylimidazo[1,5-a]pyridin-6-yl)azacyclobutan-1-yl]-5-methylhexyl]-3,8-diazabicyclo[3.2.1]oct-3-yl}ethan-1-one] | 7.3 nM |
| CC(=O)N1CCC([C@H](C(C)C)N2CC(c3cc(-c4ccc(F)cc4C(=O)N4CCOC[C@H]4C)c4c(F)nc(C)n4c3)C2)CC1 [Example 357-1, 1-{4-[(1S)-1-[3-(1-fluoro-8-{4-fluoro-2-[(3R)-3-methylmorpholin-4-carbonyl]phenyl}-3-methylimidazo[1,5-a]pyridin-6-yl)azacyclobutan-1-yl]-2-methylpropyl]piperidin-1-yl}ethan-1-one] | 15.5 nM |
| CC(=O)N1CCC([C@@H](C(C)C)N2CC(c3cc(-c4ccc(F)cc4C(=O)N4CCOC[C@H]4C)c4c(F)nc(C)n4c3)C2)CC1 [Example 357-2, 1-{4-[(1R)-1-[3-(1-fluoro-8-{4-fluoro-2-[(3R)-3-methylmorpholin-4-carbonyl]phenyl}-3-methylimidazo[1,5-a]pyridin-6-yl)azacyclobutan-1-yl]-2-methylpropyl]piperidin-1-yl}ethan-1-one] | 22 nM |
